According to paper PMC7217877, “N-AS-triggered SPMs are direct regulators of microglia in a model of Alzheimer’s disease” (Nature Communications, 2020):
Values joined by “and” are separate entries in the source; they are usually repeats but may differ in a detail not shown here. Identical values can stand only once.

System: immortalized human microglia
Experiment: ac-S565 COX2 in human microglia (western blot, immunofluorescence, Supplementary Fig 6b,c)
Format: cell-based
Parameters: ac-S565 COX2 (western blot): scale not given here
Conditions: for ac-S565 COX2 (western blot): sFig 6b
Description: To confirm the generation and roles of N-AS in neurons, cells from E18 C57BL/6 mice were prepared as previously described. Cortices were dissected and then dissociated followed by incubation in papain (Worthington) at 37 °C for 15 min. Neurons were plated on poly-L-lysine-coated coverslips with neuronal culture medium, serum-free Neurobasal medium (Gibco) containing 2% B27 supplements (Gibco), 1 mM Glutamax supplement (Gibco), and 100 U ml^−1 streptomycin/ 100 U ml^−1 penicillin (Gibco) at 37 °C in a humidified atmosphere of 5% CO2. Aβ 1–42 (10 μM, 24 h, Invitrogen, 03112) was exposed to neurons and the cells were analyzed for the generation and roles of N-AS. Primary astrocyte cultures were prepared from C57BL/6 mice as described previously. In brief, after removal of the meninges, postnatal day 7 (P7) mouse brain tissues were minced and incubated in a rocking water bath at 37 °C for 30 min in the presence of 0.25% trypsin-EDTA (Sigma-Aldrich). Enzyme-digested dissociated cells were triturated with astrocyte-specific medium (DMEM/F12 containing 10% FBS and 1% penicillin-streptomycin) and centrifuged at 155×g for 8 min. The pellet was resuspended in astrocyte-specific medium and passed through a 40-μm cell strainer. The filtrate was allowed pre-adherence for 30 min to remove any contamination from fibroblasts before being seeded in dishes and the addition of astrocyte-specific medium. To split the cells, Ara-C was added to the dishes and they were then placed in a heated shaker for 6–7 h. The medium was removed from the dishes, and trypsin-EDTA was added to the dish and incubated at 37 °C for 5–10 min. After centrifugation at 155×g for 8 min, the supernatant was removed, and the astrocytes were maintained in culture by feeding […] with astrocyte-specific medium. Primary microglia cultures were prepared from C57BL/6 mice as described previously. In brief, the cortices of 2-months-old mice were minced in Hibernate A (Gibco)/B27 supplements (Gibco) medium and dissociated using papain (Worthington) solution. After tissue trituration, cells were separated by Optiprep (Sigma-Aldrich) density gradient centrifugation. Microglia were plated with microglia-specific medium (DMEM/F12 containing 10% FBS and 1% penicillin-streptomycin). The immortalized human microglia (Applied Biologics Materials, T0251) were cultured in PriGrow III (Applied Biologics Materials, TM003) (supplemented with 10% FBS and 1% penicillin-streptomycin) at 37 °C in a humidified atmosphere of 5% CO2. […] The human microglia treated with Aβ 1–42 and/or zileuton was incubated with N-AS (2.5 μM, 2 h, Sigma-Aldrich, 01912), and were analyzed for the generation and roles of N-AS.
Thioflavin S (Sigma-Aldrich) staining was carried out according to previously described procedures. We used 6E10 (mouse, 1:100, Signet, SIG39300), anti-20G10 (mouse, 1:1000, provided by D. R. Howlett, GlaxoSmithKline, Harlow, Essex, UK) for Aβ42, anti-G30 (rabbit, 1:1000, provided by D. R. Howlett) for Aβ40, SMA (mouse, 1:400, Sigma-Aldrich, A2547), AT8 (mouse, 1:500, Thermo Fisher Scientific, MN1020), Caspase-3 (mouse, 1:200, Novus Biologicals, NB100-56708), ac-S565 (rabbit, 1:100), COX2 (mouse, 1:250, Thermo Fisher Scientific, 35-8200), Iba1 (rabbit, 1:500, Wako, 019-19941 and goat, Abcam, ab5076), NeuN (mouse, 1:500, Millipore, MAB177), GFAP (rabbit, 1:500, Dako, N1506 and chicken, 1:500, Abcam, ab4674), and Lamp1 (mouse, 1:200, Abcam, ab24170). The sections were analyzed with a laser-scanning confocal microscope (FV3000; Olympus) or with a BX51 microscope (Olympus). MetaMorph software (Molecular Devices) was used to quantification. Three-dimensional reconstruction of microglia was recorded and analyzed using IMARIS software (Bitplane)[11]. […]

| Compound | ac-S565 COX2 (western blot) (human microglia, Ab 50mM +) | S565 acetylation of COX2, in words (Aβ-affected human microglia + N-AS) | ac-S565 COX2 (immunofluorescence) (human microglia, Ab 50mM +, sFig 6c) | ac-S565 COX2 (western blot) (human microglia, Ab 50mM -) |
| --- | --- | --- | --- | --- |
| CC(=O)SCCNC(=O)CCNC(=O)[C@H](O)C(C)(C)COP(=O)(O)OP(=O)(O)OC[C@H]1O[C@@H](n2cnc3c(N)ncnc32)[C@H](O)[C@@H]1OP(=O)(O)O [Acetyl-CoA, acetyl-CoA] | 1.441 and 1.037 and 1.136 and 1.4813 and 1.401 and 1.309 | – | – | – |
| CCCCCCCCCCCCC/C=C/[C@@H](O)[C@H](CO)NC(C)=O [N-AS, N-((2S,3R,E)-1,3-Dihydroxyoctadec-4-en-2-yl)acetamide] | 1.839 and 1.211 and 1.367 and 1.737 and 1.941 and 1.552 | restored | 2.003 and 2.188 and 1.708 and 1.496 and 1.357 and 1.768 | 1.105 and 1.597 and 1.621 and 1.1016 and 1.489 and 0.9364 |
